Experimental findings from publication PMC12621191, “Increasing the Chemical Space of L-SIGN Specific Glycomimetics” (Journal of Medicinal Chemistry, 2025) are described below.

One may read the IC50 as the concentration at which inhibition is half-maximal. The low end stands for greater potency, the high end for weaker potency.

For experiment [1], the target named is T1, L-SIGN (Homo sapiens, UniProt Q9H2X3).
T1 construct: L-SIGN 3G-ECD (amino acids 78 to 399); made in house
T1 sequence (Q9H2X3 78-399): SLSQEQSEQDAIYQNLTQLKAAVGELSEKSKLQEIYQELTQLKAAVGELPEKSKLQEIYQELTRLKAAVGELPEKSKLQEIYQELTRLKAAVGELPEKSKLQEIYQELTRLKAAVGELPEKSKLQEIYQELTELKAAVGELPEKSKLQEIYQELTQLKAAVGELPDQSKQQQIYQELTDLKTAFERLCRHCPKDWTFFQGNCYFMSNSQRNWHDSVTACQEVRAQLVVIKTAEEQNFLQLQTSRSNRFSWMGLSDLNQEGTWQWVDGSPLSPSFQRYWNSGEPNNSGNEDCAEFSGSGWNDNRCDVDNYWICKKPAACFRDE
Put plainly: SPR binding inhibition (competition) assay on immobilized SARS-CoV-2 Spike surface, L-SIGN. Particulars: for Selectivity = (IC50 [DC-SIGN]/IC50 [L-SIGN]): L-SIGN vs DC-SIGN, SPR inhibition on Spike surface; for IC50 / L-SIGN IC50: SPR, Spike functionalized chip, L-SIGN 20 μM coinjected with ligand, pH 8, duplicates.

The target of experiment [2] is T2, DC-SIGN (Homo sapiens, UniProt Q9NNX6).
T2 construct: DC-SIGN 3G-ECD (amino acids 66 to 404); made in house
T2 sequence (Q9NNX6 66-404): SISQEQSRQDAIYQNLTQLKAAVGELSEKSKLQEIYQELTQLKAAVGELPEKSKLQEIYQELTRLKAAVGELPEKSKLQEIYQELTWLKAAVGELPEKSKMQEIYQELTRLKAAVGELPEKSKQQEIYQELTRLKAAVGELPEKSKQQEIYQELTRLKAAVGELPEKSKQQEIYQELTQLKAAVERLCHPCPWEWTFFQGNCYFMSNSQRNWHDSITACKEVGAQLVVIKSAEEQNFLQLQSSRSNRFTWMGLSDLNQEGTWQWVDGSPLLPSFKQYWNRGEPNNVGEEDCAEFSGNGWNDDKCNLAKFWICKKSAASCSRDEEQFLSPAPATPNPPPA
The experiment is described as follows: SPR binding inhibition (competition) assay on immobilized SARS-CoV-2 Spike surface, DC-SIGN. Particulars: Spike functionalized chip, DC-SIGN 20 μM coinjected with ligand, pH 8, duplicates. On the technique in general: SPR reads the build-up and loss of mass on a sensor chip optically.

Regarding `OC[C@H]1O[C@H](OCCCl)[C@@H](n2cc(CNC3=NCCN3)nn2)[C@@H](O)[C@@H]1O` [compound 4], in experiment [1], the “Selectivity = (IC50 [DC-SIGN]/IC50 [L-SIGN])” value (from here on “Selectivity =”) came to 76 and the IC50 was 15 ± 0.01 µM. This compound also gave an IC50 in experiment [2] of 1130 ± 26 µM.

In the case of `O=c1nccc(NCc2cn([C@@H]3[C@@H](OCCCl)O[C@H](CO)[C@@H](O)[C@@H]3O)nn2)[nH]1` [compound 7, 2-Chloroethyl 2-Deoxy-2-(4-(((pyrimidin-2(1H)-onyl)amino)methyl)-1,2,3-triazol-1-yl)-α-D-manno Pyranoside], in experiment [1], the “Selectivity =” value is listed as 5 and the IC50 was 130 ± 1 µM. This compound also gave an IC50 in experiment [2] of 692 ± 8 µM.

`NCc1cn([C@@H]2[C@@H](OCCCl)O[C@H](CO)[C@@H](O)[C@@H]2O)nn1` [compound 51, reference compound]: the “Selectivity =” value in experiment [1] (listed as 51 (Man79)) is given as “totally unselective”. For the same compound, the IC50 in experiment [1] and in experiment [2] was roughly 300 µM in each case.

Consider `OC[C@H]1O[C@H](OCCCl)[C@@H](n2cc(CNc3nc4ccccc4[nH]3)nn2)[C@@H](O)[C@@H]1O` [compound 10, 2-Chloroethyl 2-Deoxy-2-(4-(((1H-benzo[d]imidazol-2-yl)amino)methyl)-1,2,3-triazol-1-yl)-α-D-mannopyranoside], for which, in experiment [1], the “Selectivity =” value was 16 and the IC50 was found to be 48 ± 0.4 µM. In experiment [2], this compound displayed an IC50 of 779 ± 24 µM.

With `N=C(N)NCc1cn([C@@H]2[C@@H](OCCCl)O[C@H](CO)[C@@H](O)[C@@H]2O)nn1` [Man84, reference compound], in experiment [1], the “Selectivity =” value was found to be 61 and the IC50 was found to be 19 ± 0.02 µM. In experiment [2], the IC50 is 1160 ± 25 µM.

As to `OC[C@H]1O[C@H](OCCCl)[C@@H](n2cc(CNc3ncc[nH]3)nn2)[C@@H](O)[C@@H]1O` [compound 9, 2-Chloroethyl 2-Deoxy-2-(4-(((1H-imidazol-2-yl)amino)methyl)-1,2,3-triazol-1-yl)-α-D-mannopyranoside], in experiment [1], the “Selectivity =” value came to 50 and the IC50 came out at 18 ± 0.1 µM. This compound also registered an IC50 in experiment [2] of 895 ± 8 µM.

For `COc1ccc2[nH]c(NCc3cn([C@@H]4[C@@H](OCCCl)O[C@H](CO)[C@@H](O)[C@@H]4O)nn3)nc2c1` [compound 11, 2-Chloroethyl 2-Deoxy-2-(4-(((5-methoxy-1H-benzo[d]imidazol-2-yl)amino)methyl)-1,2,3-triazol-1-yl)-α-D-mannopyranoside], in experiment [1], the “Selectivity =” value is 12 and the IC50 stood at 51.6 ± 0.7 µM. The same compound yielded an IC50 in experiment [2] of 602 ± 12 µM.

With `OC[C@H]1O[C@H](OCCCl)[C@@H](n2cc(CNc3ncccn3)nn2)[C@@H](O)[C@@H]1O` [compound 2], in experiment [1], the IC50 stood at 602 ± 0.5 µM and the “L-SIGN IC50” value is “Low affinity”. This compound came in with an IC50 in experiment [2] of 798 ± 16 µM.

As for `OC[C@H]1O[C@H](OCCCl)[C@@H](n2cc(CNc3ccccn3)nn2)[C@@H](O)[C@@H]1O` [compound 8, 2-Chloroethyl 2-Deoxy-2-((4-((pyridin-2-ylamino)methyl))-1,2,3-triazol-1-yl)-α-D-mannopyranoside], in experiment [1], the “Selectivity =” value came out at 8 and the IC50 worked out at 101 ± 0.2 µM. For the same compound, in experiment [2], the IC50 was determined as 822 ± 16 µM.

For `OC[C@H]1O[C@H](OCCCl)[C@@H](n2cc(CNC3=NCCCN3)nn2)[C@@H](O)[C@@H]1O` [compound 5, 2-Chloroethyl 2-Deoxy-2-(4-(((1,4,5,6-tetrahydropyrimidin-2-yl)amino)methyl)-1,2,3-triazol-1-yl)-α-D-mannopyranoside], in experiment [1], the “Selectivity =” value is 94 and the IC50 worked out at 12 ± 0.01 µM. In experiment [2], this compound displayed an IC50 of 1130 ± 55 µM.

As to `COc1nc(NCc2cn([C@@H]3[C@@H](OCCCl)O[C@H](CO)[C@@H](O)[C@@H]3O)nn2)nc(OC)n1` [compound 3, 2-Chloroethyl 2-Deoxy-2-(4-(((4,6-dimethoxy-1,3,5-triazin-2-yl)amino)methyl)-1,2,3-triazol-1-yl)-α-D-mannopyranoside], in experiment [1], the 50% inhibitory concentration (IC50) turned out to be 453 ± 0.4 µM and the “L-SIGN IC50” value is given as “Low affinity”. The same compound registered an IC50 in experiment [2] of 555 ± 14 µM.

As for `O=c1ccnc(NCc2cn([C@@H]3[C@@H](OCCCl)O[C@H](CO)[C@@H](O)[C@@H]3O)nn2)[nH]1` [compound 6, 2-Chloroethyl 2-Deoxy-2-(4-(((pyrimidin-4(3H)-onyl)amino)methyl)-1,2,3-triazol-1-yl)-α-D-manno Pyranoside], in experiment [1], the “Selectivity =” value is 25 and the IC50 came to 30 ± 0.2 µM. Further, in experiment [2], the IC50 stood at 750 ± 29 µM.
